Among the data in patent publication US20260355196A1, “INHIBITORS AND DEGRADERS OF PIP4K PROTEIN” (Larkspur Biosciences, Inc., priority 2023, published 2026) are DC50 values, retold here.

The first assay has as its target T1, PIP4K2C (Homo sapiens, UniProt Q8TBX8).
T1 sequence (Q8TBX8 1-421): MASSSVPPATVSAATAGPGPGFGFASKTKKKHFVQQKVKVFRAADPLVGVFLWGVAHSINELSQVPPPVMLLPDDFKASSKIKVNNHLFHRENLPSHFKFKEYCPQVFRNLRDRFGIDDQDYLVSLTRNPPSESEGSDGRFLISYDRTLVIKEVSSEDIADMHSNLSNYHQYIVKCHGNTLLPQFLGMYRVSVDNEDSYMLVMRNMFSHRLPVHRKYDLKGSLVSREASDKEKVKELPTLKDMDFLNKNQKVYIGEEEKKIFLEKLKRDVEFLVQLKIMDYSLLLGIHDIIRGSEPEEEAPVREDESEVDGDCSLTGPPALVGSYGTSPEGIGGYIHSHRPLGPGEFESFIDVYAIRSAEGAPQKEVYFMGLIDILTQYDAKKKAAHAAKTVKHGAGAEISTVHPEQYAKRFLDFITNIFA
The experiment in a line: HiBiT PIP4K2C degradation assay in MOLT-4 cells (endogenous PIP4K2C C-terminally tagged with HiBiT). The class given is cell-based. Further details: untagged in primary human PBMCs and monocyte-derived dendritic cells. To be noted: 6 hours of incubation time, rather than 24 hours; MOLT-4, top concentration 10 micromolar; read-out: HiBIT-degradation MOLT4 PIP4k2C DC50 (6 hours, marked *). The essentials: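 MOLT-4 knock-in line, HiBiT on PIP4K2C C-terminus; 22,500 cells/well; 10-pt 3-fold titration from 10 micromolar, n=2; 24 h or 6 h, 37 C, 5% CO2; Nano-Glo HiBiT lytic luminescence; DC50 via Hill equation.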
As to `O=C1CCC(Nc2ccc(N3CCN(C4CC5(C4)CN(C(=O)O[C@H]4CC[C@H](Nc6ncc(F)c(-c7cccc(-n8ccccc8=O)c7)n6)CC4)C5)CC3)c(F)c2)C(=O)N1` (stereo partly drawn) [Compound 681, trans-4-((5-fluoro-4-(3-(2-oxopyridin-1 (2H)-yl)phenyl)pyrimidin-2-yl)amino)cyclohexyl 6-(4-(4-((2,6-dioxopiperidin-3-yl)amino)-2-fluorophenyl)piperazin-1-yl)-2-azaspiro[3.3]heptane-2-carboxylate], the DC50 was under 500 nM.

As to `O=C1CCC(Nc2ccc(N3CCC(N4CCC(C(=O)N[C@H]5CC[C@H](Nc6ncc(F)c(-c7cccc(N8CCCOC8=O)c7)n6)CC5)CC4)C(F)C3)c(F)c2)C(=O)N1` (some centres unmarked) [Compound 525, 1′-(4-((2,6-dioxopiperidin-3-yl)amino)-2-fluorophenyl)-3′-fluoro-N-((1r,4r)-4-((5-fluoro-4-(3-(2-oxo-1,3-oxazinan-3-yl)phenyl)pyrimidin-2-yl)amino)cyclohexyl)-[1,4′-bipiperidine]-4-carboxamide], the DC50 is under 500 nM.

Turning to `O=C1CCC(Nc2ccc(N3CCN([C@H]4CC[C@H](C(=O)N[C@H]5CC[C@H](Nc6ncc(F)c(-c7cccc(N8CCCCC8)c7)n6)CC5)CC4)CC3)c(F)c2)C(=O)N1` (stereo partly drawn) [Compound 541, trans-4-(4-(4-((2,6-dioxopiperidin-3-yl)amino)-2-fluorophenyl)piperazin-1-yl)-N-(trans-4-((5-fluoro-4-(3-(piperidin-1-yl)phenyl)pyrimidin-2-yl)amino)cyclohexyl)cyclohexane-1-carboxamide], the DC50 is under 500 nM.

Turning to `O=C1CCC(Nc2ccc(C3CCN([C@H]4CC[C@H](NC(=O)[C@H]5CC[C@H](Nc6ncc(F)c(-c7cccc(N8CCOCC8=O)n7)n6)CC5)CC4)CC3)c(F)c2)C(=O)N1` (stereo partly drawn) [Compound 545, trans-N-(trans-4-(4-(4-((2,6-dioxopiperidin-3-yl)amino)-2-fluorophenyl)piperidin-1-yl)cyclohexyl)-4-((5-fluoro-4-(6-(3-oxomorpholino)pyridin-2-yl)pyrimidin-2-yl)amino)cyclohexane-1-carboxamide], the DC50 was under 500 nM.

As to `O=C1CCC(Nc2ccc(N3CCC(N4CCC(C(=O)N[C@H]5CC[C@H](Nc6ncc(F)c(-c7cccc(C8CC8)c7)n6)CC5)CC4)CC3)c(F)c2)C(=O)N1` (stereo partly drawn) [Compound 504, trans-N-(4-((4-(3-cyclopropylphenyl)-5-fluoropyrimidin-2-yl)amino)cyclohexyl)-1′-(4-((2,6-dioxopiperidin-3-yl)amino)-2-fluorophenyl)-[1,4′-bipiperidine]-4-carboxamide], the DC50 was under 500 nM.

On to `O=C1CCC(Nc2ccc(C3CCN([C@H]4CC[C@H](C(=O)N[C@H]5CC[C@H](Nc6ncc(F)c(-c7cccc(N8CCOCC8=O)c7)n6)CC5)CC4)CC3)c(F)c2)C(=O)N1` (stereo partly drawn) [Compound 568, trans-(1r,4R)-4-(4-(4-((2,6-dioxopiperidin-3-yl)amino)-2-fluorophenyl)piperidin-1-yl)-N-((1r,4R)-4-((5-fluoro-4-(3-(3-oxomorpholino)phenyl)pyrimidin-2-yl)amino)cyclohexyl)cyclohexane-1-carboxamide], for which the DC50 is under 500 nM.

Take `O=C1CCC(Nc2ccc(N3CCC(N4CCC(C(=O)N[C@H]5CC[C@H](Nc6ncc(F)c(-c7cccc(N8CCOC8=O)c7)n6)CC5)CC4)CC3)c(F)c2)C(=O)N1` (stereo partly drawn) [Compound 596, trans-1′-(4-((2,6-dioxopiperidin-3-yl)amino)-2-fluorophenyl)-N-(4-((5-fluoro-4-(3-(2-oxooxazolidin-3-yl)phenyl)pyrimidin-2-yl)amino)cyclohexyl)-[1,4′-bipiperidine]-4-carboxamide]: the DC50 is under 500 nM.

With `O=C1CCC(Nc2ccc(C3CCN([C@H]4CC[C@H](C(=O)N[C@H]5CC[C@H](Nc6ncc(F)c(-c7cccc(N8CCCCC8)c7)n6)CC5)CC4)CC3)c(F)c2)C(=O)N1` (stereo partly drawn) [Compound 556, trans-(1r,4R)-4-(4-(4-((2,6-dioxopiperidin-3-yl)amino)-2-fluorophenyl)piperidin-1-yl)-N-((1r,4R)-4-((5-fluoro-4-(3-(piperidin-1-yl)phenyl)pyrimidin-2-yl)amino)cyclohexyl)cyclohexane-1-carboxamide], the DC50 is under 500 nM.

As for `O=C1CCC(Nc2ccc(N3CCN(C4CCN(C(=O)O[C@H]5CC[C@H](Nc6ncc(F)c(-c7cccc(N8CCOCC8)c7)n6)CC5)CC4)CC3)c(F)c2)C(=O)N1` (stereo partly drawn) [Compound 673, trans-4-((5-fluoro-4-(3-morpholinophenyl)pyrimidin-2-yl)amino)cyclohexyl 4-(4-(4-((2,6-dioxopiperidin-3-yl)amino)-2-fluorophenyl)piperazin-1-yl)piperidine-1-carboxylate], the DC50 is under 500 nM.

Take `O=C1CCC(Nc2ccc(C3CCN(CC4(O)CCN(C(=O)[C@H]5CC[C@H](Nc6ncc(F)c(-c7cccc(N8CCCOC8=O)c7)n6)CC5)CC4)CC3)c(F)c2)C(=O)N1` (stereo partly drawn) [Compound 580, trans-3-((3-fluoro-4-(1-((1-(4-((5-fluoro-4-(3-(2-oxo-1,3-oxazinan-3-yl)phenyl)pyrimidin-2-yl)amino)cyclohexane-1-carbonyl)-4-hydroxypiperidin-4-yl)methyl)piperidin-4-yl)phenyl)amino)piperidine-2,6-dione]: the DC50 is under 500 nM.

Consider `O=C1CCC(Nc2ccc(N3CCN(C[C@H]4CC[C@H](CC(=O)N[C@H]5CC[C@H](Nc6ncc(F)c(-c7cccc(N8CCCOC8=O)c7)n6)CC5)CC4)CC3)c(F)c2)C(=O)N1` (stereo partly drawn) [Compound 561, trans-2-((1r,4R)-4-((4-(4-((2,6-dioxopiperidin-3-yl)amino)-2-fluorophenyl)piperazin-1-yl)methyl)cyclohexyl)-N-((1r,4R)-4-((5-fluoro-4-(3-(2-oxo-1,3-oxazinan-3-yl)phenyl)pyrimidin-2-yl)amino)cyclohexyl)acetamide], for which the 50% degradation concentration (DC50) is under 500 nM.

Turning to `O=C1CCC(Nc2ccc(N3CCC(CC4CCN(C(=O)[C@H]5CC[C@H](Nc6ncc(F)c(-c7cccc(-n8ccccc8=O)c7)n6)CC5)CC4)CC3)c(F)c2)C(=O)N1` (stereo partly drawn) [Compound 400, trans-3-((3-fluoro-4-(4-((1-(4-((5-fluoro-4-(3-(2-oxopyridin-1(2H)-yl)phenyl)pyrimidin-2-yl)amino)cyclohexane-1-carbonyl)piperidin-4-yl)methyl)piperidin-1-yl)phenyl)amino)piperidine-2,6-dione], the DC50 is under 500 nM.

`O=C1CCC(Nc2ccc(N3CCC(N4CCC(NC(=O)[C@H]5CC[C@H](Nc6ncc(F)c(-c7cccc(N8CCCOC8=O)c7)n6)CC5)CC4)C(F)(F)C3)c(F)c2)C(=O)N1` (stereo partly drawn) [Compound 495, trans-N-(1′-(4-((2,6-dioxopiperidin-3-yl)amino)-2-fluorophenyl)-3′,3′-difluoro-[1,4′-bipiperidin]-4-yl)-4-((5-fluoro-4-(3-(2-oxo-1,3-oxazinan-3-yl)phenyl)pyrimidin-2-yl)amino)cyclohexane-1-carboxamide]: the DC50 was under 500 nM.

Consider `O=C1CCC(Nc2ccc(N3CCN([C@H]4CC[C@H](C(=O)N[C@H]5CC[C@H](Nc6ncc(F)c(-c7cccc(-c8ccc[nH]c8=O)c7)n6)CC5)CC4)CC3)c(F)c2)C(=O)N1` (stereo partly drawn) [Compound 450, trans-4-(4-(4-((2,6-dioxopiperidin-3-yl)amino)-2-fluorophenyl)piperazin-1-yl)-N-(trans-4-((5-fluoro-4-(3-(2-oxo-1,2-dihydropyridin-3-yl)phenyl)pyrimidin-2-yl)amino)cyclohexyl)cyclohexane-1-carboxamide], for which the DC50 was under 500 nM.

The assay is the same for the next values; noted with them: 24 hours incubation, MOLT-4, top concentration 10 micromolar; read-out: HiBIT-degradation MOLT4 PIP4k2C 24 hours DC50.
Regarding `O=C1CCC(n2c(=O)oc3cc(C4CCN(CC5CCN(C(=O)CN6CCC(Nc7ncc(F)c(-c8cccc(-n9ccccc9=O)c8)n7)CC6=O)CC5)CC4)ccc32)C(=O)N1` (centres unmarked) [Compound 367, 3-(6-(1-((1-(2-(4-((5-fluoro-4-(3-(2-oxopyridin-1(2H)-yl)phenyl)pyrimidin-2-yl)amino)-2-oxopiperidin-1-yl)acetyl)piperidin-4-yl)methyl)piperidin-4-yl)-2-oxobenzo[d]oxazol-3 (2H)-yl)piperidine-2,6-dione], the DC50 was under 500 nM.

Turning to `O=C1CCC(Nc2ccc(N3CCC(N4CC5(CC(OC(=O)N[C@H]6CC[C@H](Nc7ncc(F)c(-c8cccc(-n9ccccc9=O)c8)n7)CC6)C5)C4)CC3)c(F)c2)C(=O)N1` (stereo partly drawn) [Compound 377, trans-2-(1-(4-((2,6-dioxopiperidin-3-yl)amino)-2-fluorophenyl)piperidin-4-yl)-2-azaspiro[3.3]heptan-6-yl (4-((5-fluoro-4-(3-(2-oxopyridin-1(2H)-yl)phenyl)pyrimidin-2-yl)amino)cyclohexyl)carbamate], the DC50 was under 500 nM.

For `O=C1CCC(Nc2ccc(C3CCN(CC(=O)N4CCC5(C4)CN(C(=O)[C@H]4CCC[C@@H](Nc6ncc(Cl)c(-c7cccc(-c8ccc(F)cc8)c7)n6)C4)C5)CC3)c(F)c2)C(=O)N1` (relative stereo) [Compound 284, cis-3-((4-(1-(2-(2-(3-((5-chloro-4-(4′-fluoro-[1,1′-biphenyl]-3-yl)pyrimidin-2-yl)amino)cyclohexane-1-carbonyl)-2,6-diazaspiro[3.4]octan-6-yl)-2-oxoethyl)piperidin-4-yl)-3-fluorophenyl)amino)piperidine-2,6-dione], the DC50 is under 500 nM.

For orientation: DC50 means the concentration at which degradation of the target reaches its halfway point.
